Assay [1] addresses T1, cAMP-dependent protein kinase catalytic subunit PRKX (Homo sapiens) (UniProt P51817).
T1 sequence (whole entry): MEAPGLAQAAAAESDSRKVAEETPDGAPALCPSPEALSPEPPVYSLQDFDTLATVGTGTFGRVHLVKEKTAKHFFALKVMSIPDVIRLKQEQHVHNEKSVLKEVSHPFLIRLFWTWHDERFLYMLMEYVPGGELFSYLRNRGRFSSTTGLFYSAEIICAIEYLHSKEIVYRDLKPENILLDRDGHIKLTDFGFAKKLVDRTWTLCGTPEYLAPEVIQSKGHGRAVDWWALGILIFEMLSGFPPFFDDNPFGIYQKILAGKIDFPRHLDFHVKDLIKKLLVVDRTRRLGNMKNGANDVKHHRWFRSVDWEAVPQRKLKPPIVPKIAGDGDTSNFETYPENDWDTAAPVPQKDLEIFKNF
Conditions: at 10 µM.

In assay [2] the target is T2, Serine/threonine-protein kinase Nek11 (Homo sapiens) (UniProt Q8NG66).
T2 sequence (whole entry): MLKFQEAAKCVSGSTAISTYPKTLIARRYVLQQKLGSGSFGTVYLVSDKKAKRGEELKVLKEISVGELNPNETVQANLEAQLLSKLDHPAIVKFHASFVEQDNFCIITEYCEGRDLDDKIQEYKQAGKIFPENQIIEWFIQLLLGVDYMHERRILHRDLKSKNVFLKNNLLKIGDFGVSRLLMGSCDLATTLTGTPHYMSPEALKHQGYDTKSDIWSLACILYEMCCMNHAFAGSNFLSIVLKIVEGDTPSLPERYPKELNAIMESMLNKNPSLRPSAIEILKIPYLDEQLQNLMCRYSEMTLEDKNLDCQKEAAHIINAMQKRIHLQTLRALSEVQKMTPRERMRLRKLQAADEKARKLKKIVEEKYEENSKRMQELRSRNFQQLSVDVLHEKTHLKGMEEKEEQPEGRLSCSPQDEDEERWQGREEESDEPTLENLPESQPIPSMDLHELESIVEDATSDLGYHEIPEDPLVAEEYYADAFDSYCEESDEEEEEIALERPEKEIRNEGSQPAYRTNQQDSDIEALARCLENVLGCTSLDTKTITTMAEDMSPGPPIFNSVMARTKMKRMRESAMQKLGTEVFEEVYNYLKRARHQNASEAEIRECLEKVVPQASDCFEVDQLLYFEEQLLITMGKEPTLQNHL
The assay is described as follows: Selectivity interaction (KinomeScan (DiscoverX)) EUB0001619a NEK11. Particulars: at 1 µM.

Assay [3] concerns the target Tyrosine-protein kinase JAK1 (Homo sapiens, UniProt P23458). The assay can be described thus: Selectivity interaction (KinomeScan (DiscoverX)) EUB0000666a JAK1. Conditions: at 10 µM.
The target of assay [4] is T3, Dual specificity mitogen-activated protein kinase kinase 4 (Homo sapiens) (UniProt P45985).
T3 sequence (whole entry): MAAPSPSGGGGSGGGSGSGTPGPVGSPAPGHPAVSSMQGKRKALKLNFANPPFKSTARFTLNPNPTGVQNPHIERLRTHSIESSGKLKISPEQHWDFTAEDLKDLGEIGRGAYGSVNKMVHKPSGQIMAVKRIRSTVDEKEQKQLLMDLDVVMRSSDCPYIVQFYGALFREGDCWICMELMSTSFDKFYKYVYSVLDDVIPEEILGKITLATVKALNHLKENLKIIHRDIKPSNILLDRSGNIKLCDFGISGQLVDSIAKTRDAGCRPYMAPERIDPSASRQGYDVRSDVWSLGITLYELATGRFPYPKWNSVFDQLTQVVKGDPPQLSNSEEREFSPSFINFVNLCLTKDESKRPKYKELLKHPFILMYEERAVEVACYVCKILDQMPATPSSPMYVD
The assay can be described thus: Selectivity interaction (ActivX KiNativ screen (kinase selectivity in THP-1 cell lysates)) EUB0000639a MAP2K4. Conditions: lysate, at 0.01 µM. Type of assay: subcellular.

Assay [5] has as its target Dual specificity mitogen-activated protein kinase kinase 2 (Homo sapiens) (UniProt P36507). The assay can be described thus: Selectivity interaction (ActivX KiNativ screen (kinase selectivity in THP-1 cell lysates)) EUB0000639a MAP2K2. Type of assay: subcellular. Particulars: lysate, at 0.04 µM.
Assay [6] has as its target T4, Ephrin type-B receptor 3 (Homo sapiens) (UniProt P54753).
T4 sequence (whole entry): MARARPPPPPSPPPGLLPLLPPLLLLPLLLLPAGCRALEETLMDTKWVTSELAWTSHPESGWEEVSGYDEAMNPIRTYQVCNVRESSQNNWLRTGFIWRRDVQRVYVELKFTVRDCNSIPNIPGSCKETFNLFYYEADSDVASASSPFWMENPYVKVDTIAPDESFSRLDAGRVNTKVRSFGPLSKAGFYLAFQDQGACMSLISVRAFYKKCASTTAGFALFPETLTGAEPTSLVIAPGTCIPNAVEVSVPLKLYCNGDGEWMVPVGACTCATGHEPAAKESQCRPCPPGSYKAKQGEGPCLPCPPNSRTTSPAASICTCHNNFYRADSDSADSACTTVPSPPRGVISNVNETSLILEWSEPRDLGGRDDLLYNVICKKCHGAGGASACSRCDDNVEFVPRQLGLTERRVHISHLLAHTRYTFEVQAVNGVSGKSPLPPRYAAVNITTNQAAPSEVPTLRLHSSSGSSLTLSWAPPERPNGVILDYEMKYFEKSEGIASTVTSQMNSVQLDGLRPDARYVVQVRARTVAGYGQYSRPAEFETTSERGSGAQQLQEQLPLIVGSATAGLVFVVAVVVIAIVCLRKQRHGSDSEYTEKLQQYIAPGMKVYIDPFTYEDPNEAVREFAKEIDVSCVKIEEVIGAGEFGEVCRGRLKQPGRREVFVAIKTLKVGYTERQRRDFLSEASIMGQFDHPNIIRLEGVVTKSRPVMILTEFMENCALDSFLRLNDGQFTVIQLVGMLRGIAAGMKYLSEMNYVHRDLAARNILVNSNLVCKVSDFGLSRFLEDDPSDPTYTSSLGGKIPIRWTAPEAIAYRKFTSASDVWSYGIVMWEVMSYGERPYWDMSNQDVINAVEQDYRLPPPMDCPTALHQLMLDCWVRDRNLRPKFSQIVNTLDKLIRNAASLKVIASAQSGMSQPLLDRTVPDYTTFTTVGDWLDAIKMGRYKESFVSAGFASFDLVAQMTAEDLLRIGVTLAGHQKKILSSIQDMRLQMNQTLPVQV
The assay can be described thus: Selectivity interaction (Ambit KINOMEscan and KiNATiv profiling in Jurkat cells) EUB0000090b EPHB3. The class given is cell-based. Conditions: at 1 µM.

For assay [7], the target named is Cyclin-dependent kinase 4 (Homo sapiens, UniProt P11802). The assay can be described thus: Selectivity interaction (KinomeScan (DiscoverX)) EUB0001049a CDK4. Particulars: at 1 µM.
For assay [8], the target named is Serine/threonine-protein kinase 16 (Homo sapiens, UniProt O75716). The assay can be described thus: Selectivity interaction (KinomeScan (DiscoverX)) EUB0001868a STK16. Conditions: at 1 µM.
In assay [9] the target is Serine/threonine-protein kinase 26 (Homo sapiens, UniProt Q9P289). The assay can be described thus: Selectivity interaction (KinomeScan (DiscoverX)) EUB0000229b STK26. Particulars: at 10 µM.

The text below walks through data of ChEMBL document CHEMBL5465560, “Selectivity Literature for EUbOPEN Chemogenomic Library” (2024).

Sequence of Dual specificity mitogen-activated protein kinase kinase 2 (Homo sapiens) (P36507 whole entry): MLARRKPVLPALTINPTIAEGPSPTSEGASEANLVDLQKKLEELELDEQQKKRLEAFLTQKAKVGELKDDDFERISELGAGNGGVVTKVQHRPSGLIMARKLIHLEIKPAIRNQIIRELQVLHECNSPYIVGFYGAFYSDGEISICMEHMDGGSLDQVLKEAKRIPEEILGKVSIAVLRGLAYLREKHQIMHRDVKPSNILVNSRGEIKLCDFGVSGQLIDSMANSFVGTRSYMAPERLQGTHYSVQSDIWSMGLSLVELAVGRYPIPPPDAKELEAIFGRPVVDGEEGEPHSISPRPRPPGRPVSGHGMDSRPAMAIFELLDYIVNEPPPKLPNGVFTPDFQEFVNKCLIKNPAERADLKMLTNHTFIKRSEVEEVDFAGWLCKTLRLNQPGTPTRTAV
Sequence of Serine/threonine-protein kinase 16 (O75716 whole entry): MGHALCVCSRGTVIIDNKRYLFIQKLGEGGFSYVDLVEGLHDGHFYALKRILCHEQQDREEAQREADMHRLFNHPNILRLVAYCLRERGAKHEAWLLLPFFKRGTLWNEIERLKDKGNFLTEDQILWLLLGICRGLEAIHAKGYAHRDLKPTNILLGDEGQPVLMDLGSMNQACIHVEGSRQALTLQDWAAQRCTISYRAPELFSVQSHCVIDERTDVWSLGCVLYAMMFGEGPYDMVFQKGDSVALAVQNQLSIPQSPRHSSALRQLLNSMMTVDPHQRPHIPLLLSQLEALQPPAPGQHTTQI
Sequence of Cyclin-dependent kinase 4 (P11802 whole entry): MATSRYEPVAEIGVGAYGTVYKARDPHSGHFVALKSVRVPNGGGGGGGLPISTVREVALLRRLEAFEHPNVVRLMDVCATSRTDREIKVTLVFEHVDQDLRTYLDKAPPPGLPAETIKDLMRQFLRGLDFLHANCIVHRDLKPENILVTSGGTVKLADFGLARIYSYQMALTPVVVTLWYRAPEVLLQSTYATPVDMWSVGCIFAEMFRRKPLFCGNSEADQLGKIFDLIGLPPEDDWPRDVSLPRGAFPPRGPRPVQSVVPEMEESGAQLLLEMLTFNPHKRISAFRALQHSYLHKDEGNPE
Sequence of Tyrosine-protein kinase JAK1 (P23458 whole entry): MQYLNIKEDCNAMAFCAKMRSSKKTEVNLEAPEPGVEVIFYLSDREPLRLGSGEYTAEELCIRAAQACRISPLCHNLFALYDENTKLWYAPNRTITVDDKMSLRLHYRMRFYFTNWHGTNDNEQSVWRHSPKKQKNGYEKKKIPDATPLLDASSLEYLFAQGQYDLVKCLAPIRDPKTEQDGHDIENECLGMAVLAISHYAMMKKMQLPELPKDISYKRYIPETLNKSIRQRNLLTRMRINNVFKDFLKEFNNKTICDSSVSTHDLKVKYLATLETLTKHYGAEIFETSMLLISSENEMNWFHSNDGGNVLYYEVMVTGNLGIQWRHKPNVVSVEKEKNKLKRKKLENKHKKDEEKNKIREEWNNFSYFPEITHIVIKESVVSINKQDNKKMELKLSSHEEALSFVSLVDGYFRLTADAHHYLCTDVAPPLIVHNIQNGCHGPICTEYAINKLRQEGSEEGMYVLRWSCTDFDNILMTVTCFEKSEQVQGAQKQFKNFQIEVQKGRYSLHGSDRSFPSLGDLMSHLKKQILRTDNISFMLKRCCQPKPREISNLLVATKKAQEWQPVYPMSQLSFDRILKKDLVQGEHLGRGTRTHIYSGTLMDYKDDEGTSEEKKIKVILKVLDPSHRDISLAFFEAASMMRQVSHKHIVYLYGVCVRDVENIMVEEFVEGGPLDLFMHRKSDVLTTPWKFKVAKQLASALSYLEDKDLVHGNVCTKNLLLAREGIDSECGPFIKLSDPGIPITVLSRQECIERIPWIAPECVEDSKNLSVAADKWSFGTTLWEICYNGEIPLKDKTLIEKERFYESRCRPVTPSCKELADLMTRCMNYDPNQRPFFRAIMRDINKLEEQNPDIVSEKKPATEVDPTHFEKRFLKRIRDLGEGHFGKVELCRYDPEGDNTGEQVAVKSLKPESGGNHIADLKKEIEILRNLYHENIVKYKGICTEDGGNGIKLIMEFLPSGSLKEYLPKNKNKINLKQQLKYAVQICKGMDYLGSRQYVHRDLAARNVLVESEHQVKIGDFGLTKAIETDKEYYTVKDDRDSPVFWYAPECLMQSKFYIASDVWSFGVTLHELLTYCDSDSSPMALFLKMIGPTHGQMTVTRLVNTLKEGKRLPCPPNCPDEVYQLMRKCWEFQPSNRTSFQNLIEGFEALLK
Sequence of Serine/threonine-protein kinase 26 (Q9P289 2-416 limits assumed): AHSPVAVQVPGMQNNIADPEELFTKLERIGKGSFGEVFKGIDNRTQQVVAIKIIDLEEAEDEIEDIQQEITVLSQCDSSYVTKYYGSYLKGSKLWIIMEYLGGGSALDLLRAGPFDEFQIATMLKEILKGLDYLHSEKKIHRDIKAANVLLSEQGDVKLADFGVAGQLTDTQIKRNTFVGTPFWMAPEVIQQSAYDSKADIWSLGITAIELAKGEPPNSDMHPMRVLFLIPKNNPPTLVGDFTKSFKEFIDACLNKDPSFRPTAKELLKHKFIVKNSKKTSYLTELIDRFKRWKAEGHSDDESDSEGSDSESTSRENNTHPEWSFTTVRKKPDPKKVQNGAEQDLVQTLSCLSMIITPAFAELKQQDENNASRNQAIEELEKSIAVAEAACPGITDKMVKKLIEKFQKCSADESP

As to `COCC(=O)NC/C=C/c1ccc2ncnc(Nc3ccc(Oc4ccc(C)nc4)c(C)c3)c2c1` [CP-724714], in assay [1], the % of control turned out to be 100%. As for `N#Cc1cccc(-c2c[nH]c3ncnc(N4CCOCC4)c23)c1`, in assay [2], the % of control came out at 100%. In [3], `O=C(NOC[C@H](O)CO)c1ccc(F)c(F)c1Nc1ccc(I)cc1F` had a % of control of 78%.

For the molecule `CC[C@@H]1[C@H](F)C(=O)N[C@@H]1COc1nccc2cc(C(N)=O)c(OC)cc12` [ZIMLOVISERTIB], the results for the % of inhibition in [4] and in assay [5] were -5.8% and -38.8%, respectively. For `CN(C)C/C=C/C(=O)Nc1ccc(C(=O)N2CCCC(Nc3ncc(Cl)c(-c4c[nH]c5ccccc45)n3)C2)cc1` (centres undefined), the % of control in assay [6] came out at 93%.

For `COc1cc(Nc2nc(C)cc(-c3cnn4nc(OC)ccc34)n2)cc(C(F)(F)F)c1`, the % of control in assay [7] came out at 70%. Molecule `Cc1cc(-c2ccnc(Nc3cnn(C)c3)n2)ccc1CNC(=O)N1CC(OC(C)C)C1` had a % of control in [8] of 23%. For the molecule `COc1cc(N(C)c2ccnc3ccc(C(F)(F)F)cc23)cc(OC)c1OC`, the % binding in assay [9] is 99%.
